In US20070243273A1, “Reduction of the Deleterious Effects of Tobacco Smoking” (SaviPu Pharmaceuticals, priority 2006, published 2007):

Columns and labels:
[1] = system: benzo[a]pyrene-induced transformation of RTE cells; assay: rat tracheal epithelial (RTE) cell focus inhibition assay; format: cell-based
Protocol: (§1) The rat tracheal epithelial (RTE) cell focus inhibition assay was used to identify potential chemopreventive activity of tanshinone IIA. Tanshinone IIA was evaluated for its ability to inhibit benzo[a]pyrene-induced transformation of RTE cells. Tracheal epithelial cells were isolated from 8-12 week-old male Fisher 344 rats and plated on collagen coated dishes. Initially, a nontoxic concentration of tanshinone IIA was determined by treating RTE cells with a range of 1.5 nM to 3000 nM of tanshinone IIA. […] About 10% cells survived at a concentration of 1500 nM. Freshly isolated RTE cells were exposed to benzo[a]pyrene alone or in combination with tanshinone IIA. Benzo[a]pyrene was washed out after an exposure of 24 h. The maximal non-toxic concentration and four half log concentrations of tanshinone IIA (300 nM to 3 nM) were used for the chemopreventive assay. After 30 days in culture, transformed foci were scored and inhibition was quantitated. […] A positive control of retinoic acid inhibited the transformation frequency by 50% at 1 nM.

RTE cells = assay: toxicity of tanshinone IIA to RTE cells; format: cell-based, rat
Protocol: as §1

Compound | inhibition at 0.001 µM ([1]; Rattus norvegicus, 1 nM, positive control, read-out: inhibition of transformation frequency) | prevention of benzo[a]pyrene-induced transformation of rat tracheal epithelial cells ([1]; 3 nM) | inhibition of transformation frequency ([1]; each dose level, 300 nM to 3 nM, benzo[a]pyrene exposure 24 h, foci scored after 30 days in culture) | cells survived (RTE cells; 1500 nM) | concentration found nontoxic to RTE cells (RTE cells; tested range 1.5 nM to 3000 nM) | toxicity to the cells (RTE cells; very low concentrations (3 nM))
CC1=C(/C=C/C(C)=C/C=C/C(C)=C/C(=O)O)C(C)(C)CCC1 [retinoic acid, reference compound] | 50% |  |  |  |  | 
Cc1coc2c1C(=O)C(=O)c1c-2ccc2c1CCCC2(C)C [Tanshinone IIA] |  | totally prevented | complete inhibition | About 10% | ≤ 150 nM | nontoxic
